Measured values: patent publication US20250032425A1, “FIRST IN CLASS USE OF ESTROGEN RECEPTOR BETA AGONISTS IN TREATING ANGELMAN SYNDROME AND RELEVANT AUTISM SPECTRUM DISORDERS” (BROWN UNIVERSITY, priority 2023, published 2025)
Entries after “also recorded” stand apart in the source; their conditions may differ.

Columns and labels:
Type in all cases: cell-based, human
UBE3A-deficient iOPCs = assay: Ki67 (and PCNA) immunoblotting in UBE3A-knockdown iOPCs: compound screen and rescue of proliferation; settings: for impact of UBE3A loss on OPC proliferation (FIG. 18F, 19G): ERβ activators of different structural classes; for effect of AC-186 to enhance proliferation of iOPCs with UBE3A knockdown (Ki67): MEK inhibitor with AC-186 co-treatment (10 μM, 24 hours); for restoration of Ki67 expression in compound screen: Ki67 immunoblotting normalized to siNC=1.0
Experimental: Given the scarcity of knowledge regarding UBE3A function in oligodendrocyte biology, a comprehensive exploration of various cellular functions was performed, leveraging the high-throughput capabilities of the iPSC-based methodology (e.g., as described herein). We selected over 45 compounds with known targeted cellular actions (Table 1). These were chosen based on their documented effects on UBE3A, their ability to promote oligodendrocyte development and myelination, or their protective 10 roles in neural tissue. UBE3A expression was modulated using siRNA, achieving a controlled reduction that decreased OPC proliferation by approximately 50%, as evidenced by Ki67 protein levels.
iPSC Culturing and Generation of Induced Human Brain Cells Including Oligodendroglia, Neurons (IN), Astrocytes (iAs) and Microglia (iMG) The generation of iPSC-derived human oligodendrocyte precursor cells (iOPCs) was carried out according to a previously published protocol by Vulakh and Yang et al., 2023 (Characterizing the Neuron-Glial Interactions by the Co-cultures of Human iPSC-Derived Oligodendroglia and Neurons. Methods Mol. Biol. 2683), which itself was a modification of an earlier protocol by Assetta et al., 2020 (Generation of Human Neurons and Oligodendrocytes from Pluripotent Stem Cells for Modeling Neuron-Oligodendrocyte Interactions. J Vis Exp.). The process began with the control iPSCs, which is a well-characterized control reference line acquired from the NIH-funded iPSC Neurodegenerative Disease Initiative (INDI, (Ramos, D. M., Skarnes, W. C., Singleton, A. B., Cookson, M. R., and Ward, M. E. (2021). Tackling neurodegenerative diseases with genomic engineering: A new stem cell initiative from the NIH. Neuron 109, 1080-1083. 10.1016/j.neuron.2021.03.022)), distributed by the Jackson Laboratory. These iPSCs were maintained in mTeSR plus medium (StemCell Technologies, #05825) and expanded in Stem Flex medium (Fisher Scientific. #A3349401) for the induction of neural progenitor cells (INPC). The iNPCs were derived by treating iPSCs with a commercial SMAD inhibitor medium (StemCell Technologies, #08582) for 7 days (Week 1). Subsequently, NPCs were further induced to become OPCs by a 7-day incubation (Week 2) with a chemically-defined OPC medium: DMEM/F12 medium (Thermo Fisher, #11320033) supplemented by 10 ng/ml PDGF-AA (R&D Systems, #221-AA-025), 1 μM SAG (Tocris, #4366), […] N-Acetyl-Cysteine (Millipore Sigma, #A9165-5G), 20 ng/mL bFGF (R&D Systems, #233-FB-025/CF), 1% N2 supplement (Thermo Fisher, #17502048), and 1% B27 supplement (Thermo Fisher, #17504044). […] The additional incubation with OL medium for 7-14 days (Week 4-5) yielded mature, myelinating OLs.
(§1) The siRNAs targeting UBE3A (Thermo Fisher, #4390815 and #4390816), estrogen receptors (Thermo Scientific #145909 for ESRβ, #145539 for ESRα, and #4390824 for GPER), and negative control (Thermo Scientific, #AM4615) were obtained commercially. The 10-20 nM final concentration was used with Lipofectamine RNAiMAX transfection reagent (Thermo Scientific #13778075) and incubated for at least 48 hours before the treatments of therapeutic compounds or other reagents.
Cells were collected by fast spin down in centrifuge tubes before lysis in RIPA buffer (ThermoFisher, #89901) supplemented with proteinase inhibitor cocktail (Sigma-Aldrich, #5892791001) on ice. Lysates were then spun down at 15000 rpm for 10 mins, the supernatant was collected and mixed with 4× Laemmle sample buffer (Bio-Rad, #1610747) and cooked 10 mins before SDS-PAGE and transferred with Bio-Rad fast transfer system, the membranes were blocked for one hour in 1× Tris Buffered Saline (TBS) with 1% Casein buffer (Bio-Rad, #1610782) and incubated with primary antibodies overnight at 4 degrees. […]

[1] = tested on: iOPCs expressing Cas9 and a sgRNA targeting UBE3A; assay: EdU incorporation in iOPCs with CRISPR/Cas9 UBE3A depletion (Lenti-sgUBE3A #1-3); settings: 10 μM; any of the sgRNAs
Experimental: The sgRNAs targeting UBE3A, and negative control were obtained from Applied Biological Materials Inc. Targeting sgRNA sequences against UBE3A are: sgRNA1, […]; sgRNA2, […]; sgRNA3, […]. These sgRNAs were integrated into the backbone of the negative control pLenti-U6-sgRNA-SFFV-Cas9-2A-Puro. All constructs were packaged into lentiviruses and concentrated by Lenti-X Concentrator (Takara Bio #631231). In each experiment, 5-10 μl of concentrated virus was administered into ˜70% confluent iOPCs cultures in 6-well plates. One day post-lentiviral transduction, iOPC cultures were treated with approximately 5 μg/ml Puromycin to isolate those iOPCs which are expressing Cas9/sgRNAs. Following a day of selection, the iOPCs were then seeded on gelatin-coated coverslips placed in 24-well plates at a density of 100,000 cells per well. After another day allowed for cell stabilization, treatment with either the vehicle control (DMSO), AC-186, DPN, or LY500307 commenced at a standard concentration of 10 μM. A final 24-hour period after this treatment saw the cells exposed to […] for three hours, preparing them for subsequent immunofluorescence staining.
The EdU labeling kit from ThermoFisher Scientific (#C10637) was used to trace cell proliferation by incubating iOPCs with 2 μM EdU for three hours before fixation. Following EdU incorporation, cells were fixed in 4% paraformaldehyde, blocked with normal serum, and stained with primary antibodies, Rabbit anti-Ki67 and Mouse anti-UBE3A. These steps were conducted according to the manual of the labeling kit and also detailed immunofluorescence staining protocols described below, to ensure specific detection of the proliferation marker Ki67 and the ubiquitin-protein ligase UBE3A in the cells for subsequent imaging analysis.

[2] = tested on: ERK/MAPK signaling pathway; assay: ERK/MAPK and S6 activation in iOPCs by immunoblotting (phosphorylated to total ratio); settings: MEK inhibitor added to UBE3A-depleted OPCs with AC-186
Description: FIGS. 20A-20E depict the identification of ESR-β signaling pathway in regulating OPC proliferation impaired by UBE3A depletion. FIG. 20A: Immunofluorescence to track estrogen receptor (ESR) expression in OPCs, by staining of all 3 ESRs, ESR-α, ESR-β and GPER (top panels), in iOPCs co-labeled with UBE3A (middle panels) and DAPI; scale bar, 100 μm. […] FIG. 20B: Immunoblotting to assess OPC expression of individual ESRs, by analyzing protein levels of ESR-α, ESR-β and GPER in iOPCs treated with siNC or siUBE3A, normalized to GAPDH and expressed relative to the siNC condition (set as 1.0). After treatment with siUBE3A, expression of ESR-β was decreased, while expression of GPER was increased. n=5-6 experiments. FIG. 20C: The activation of the ERK/MAPK signaling pathway in OPCs, particularly downstream of ESR-β, was analyzed in iOPCs subjected to 6 knockdown conditions: siNC, siUBE3A, siESRα, siESRβ, and combinations of siUBE3A with siESRα or siESRβ. These were followed by treatment with vehicle control or the ESR-β agonist AC-186 (10 μM, 30 min). The activation of ERK and its substrate S6 was determined by the ratio of phosphorylated to total ERK and S6 levels, adjusted relative to the vehicle control group (standard value of 1.0). ERK phosphorylation and S6 phosphorylation was decreased in cells treated with siESRβ, or siESRβ and siUBE3A combined. n=3 experiments. FIG. 20D: Immunoblotting to evaluate the role of ERK/MAPK activation in the restoration of OPC proliferation following ESR-β activation, with the addition of ERK phosphorylation inhibitors U0126 or PD98059 to UBE3A-depleted OPCs, with or without AC-186 co-treatment (10 μM. 24 hours). The quantification of Ki67 expression and UBE3A levels, being normalized to β-tubulin (TUBB1) and compared to the siNC condition (value of 1.0). n=5 experiments. FIG. 20E: A schematic depicting the regulatory role of ESR-β signaling pathway in OPC proliferation, identified by combining genetic knockdown techniques and pharmacological interventions. Activation of ESR-β selectively triggers the ERK/MAPK pathway, as shown by ERK phosphorylation and the ERK substrate S6 activation, essential for cell proliferation. […] As applicable: statistical significance was determined using One-way ANOVA followed by post-hoc comparisons, with selected comparisons presented. Significance levels marked as *p<0.05. ** p<0.005. *** p<0.001. **** p<0.0001, ns not significant, across relevant comparisons.
as §1
Cells were collected by fast spin down in centrifuge tubes before lysis in RIPA buffer (ThermoFisher, #89901) supplemented with proteinase inhibitor cocktail (Sigma-Aldrich, #5892791001) on ice. Lysates were then spun down at 15000 rpm for 10 mins, the supernatant was collected and mixed with 4× Laemmle sample buffer (Bio-Rad, #1610747) and cooked 10 mins before SDS-PAGE and transferred with Bio-Rad fast transfer system, the membranes were blocked for one hour in 1× Tris Buffered Saline (TBS) with 1% Casein buffer (Bio-Rad, #1610782) and incubated with primary antibodies overnight at 4 degrees. After 3 times washing in TBST washing buffers (ThermoFisher, #28352), the membranes were incubated with HRP conjugated antibodies and developed with Clarity Max™ Western ECL Substrate (Bio-Rad, #1705062) before being filmed in the iBright imaging system.

[3] = tested on: UBE3A-deficient iOPCs and iOLs; assay: Oligodendrocyte differentiation of UBE3A-deficient iOPCs into iOLs (immunoblotting of Ki67, MAG, CNPase); settings: UBE3A-deficient iOLs; AC-186 (10 µM), clemastine (2.5 μM); 3 days
Experimental: FIG. 25C: Immunoblotting was conducted to assess the impact of UBE3A depletion on ESR-β expression during oligodendrocyte differentiation. Protein levels of ESR-β in UBE3A-deficient iOPCs and subsequently differentiated iOLs were quantified, normalized against the loading control GAPDH, and expressed relative to the iOPC+siNC control condition (set at 1.0). […] Levels of Ki67 and Myelin Associated Glycoprotein (MAG) were measured in UBE3A-deficient iOPCs and iOLs differentiated from them, normalized against GAPDH, and compared to the iOPC+siNC condition. n=4 experiments. FIG. 25E: Immunoblotting to examine the role of UBE3A for OPC self-renewal and oligodendrocyte differentiation across different developmental stages. Expression of maturation and myelination markers (MBP, MAG, PLP1, CNPase) was quantified following UBE3A depletion timed from iOPCs to pre-iOLs, normalized against TUBB1. and compared to the iOPC+siNC control condition (set at 1.0). n=4 experiments.

[4] = tested on: AS iOPCs differentiated into iOLs; assay: Differentiation of AS patient-derived iOPCs into iOLs (MAG, CNPase, MBP); settings: AC-186 10 μM or clemastine 2.5 μM, 72 hours
[5] = siUBE3A cells, 10 μM, 24 hours, normalized to GAPDH

`Oc1ccc([C@@H]2Oc3ccc(O)cc3[C@@H]3CCC[C@@H]32)cc1` [LY500307, reference compound] was tested, and the “impact of UBE3A loss on OPC proliferation (FIG. 18F, 19G)” value (shortened to “impact of UBE3A loss”) (UBE3A-deficient iOPCs) was “similarly mitigated the impact of UBE3A loss on OPC proliferation”, the “Ki67 expression (FIG. 19G)” value (UBE3A-deficient iOPCs; [5]) was “increased expression” and the “PCNA expression (FIG. 19G)” value (UBE3A-deficient iOPCs; [5]) was “increased expression”. For the same molecule, the “number of EdU+ cells” value [1] was “increased the number of EdU+ cells”.

`O=C1C[C@@H](c2ccc(O)cc2)Oc2cc(O)ccc21` [Liquiritigenin, reference compound] was tested, and the “impact of UBE3A loss” value (UBE3A-deficient iOPCs) was “similarly mitigated the impact of UBE3A loss on OPC proliferation”.

In the case of `COc1cccc(-c2cc(=O)c3ccccc3o2)c1N` [PD98059, reference compound], the “effect of AC-186 to enhance proliferation of iOPCs with UBE3A knockdown (Ki67)” value (UBE3A-deficient iOPCs) is reported as “reduced” and the “ERK/MAPK pathway activation stimulated by AC-186” value [2] is reported as “inhibited”.

`N#CC(=C(/N)Sc1ccccc1N)/C(C#N)=C(\N)Sc1ccccc1N` [U0126, reference compound] was tested, and the “effect of AC-186 to enhance proliferation of iOPCs with UBE3A knockdown (Ki67)” value (UBE3A-deficient iOPCs) was “reduced” and the “ERK/MAPK pathway activation stimulated by AC-186” value [2] was “inhibited”.

With `Oc1ccc(-c2nc3cc(O)cc(Br)c3o2)cc1` [WAY-200070, reference compound] the “impact of UBE3A loss” value (UBE3A-deficient iOPCs) was “similarly mitigated the impact of UBE3A loss on OPC proliferation”.

For `CN1CCC[C@@H]1CCO[C@](C)(c1ccccc1)c1ccc(Cl)cc1` [clemastine, Clemastine, reference compound], the “oligodendrocyte differentiation (MAG), FIG. 25D” value [3] was “enhanced differentiation” and the “oligodendrocyte differentiation (MAG, CNPase, MBP)” value [4] was “positively influenced the differentiation process”.

With “FGF: fibroblast growth factor; bFGF, human recombinant” the “restoration of Ki67 expression in compound screen” value (UBE3A-deficient iOPCs; 10 μM, 24 hours) was “restored; also recorded: effectively normalized proliferation levels; also recorded: Statistically significant; also recorded: capable of restoring Ki67 expression”.

B1: BDNF: brain-derived neurotrophic factor, human recombinant; neurotrophin that belongs to NGF-beta family (protein, UniProt P23560 19-247, looked up)
Neurotrophic factor BDNF …: APMKEANIRGQGGLAYPGVRTHGTLESVNGPKAGSRGLTSLADTFEHVIEELLDEDQKVRPNEENNKDADLYTSRVMLSSQVPLEPPLLFLLEEYKNYLDAANMSMRVRRHSDPARRGELSVCDSISEWVTAADKKTAVDMSGGTVTVLEKVPVSKGQLKQYFYETKCNPMGYTKEGCRGIDKRHWNSQCRTTQSYVRALTMDSKKRIGWRFIRIDTSCVCTLTIKRGR
For B1, the “restoration of Ki67 expression in compound screen” value (UBE3A-deficient iOPCs; 10 μM, 24 hours) was “restored; also recorded: effectively normalized proliferation levels; also recorded: Statistically significant; also recorded: capable of restoring Ki67 expression”.
